According to US9695155B2, “Herbicidal substituted pyrimidinyloxy benzene compounds” (E. I. DU PONT DE NEMOURS AND COMPANY, priority 2013, dated 2017):

How the values were obtained:
[1] = system: Italian ryegrass; assay: Test E postemergence; assay type: in vivo, Lolium multiflorum
Source text: (§1) Seeds of plant species selected from corn (Zea mays), soybean (Glycine max), velvetleaf (Abutilon theophrasti), lambsquarters (Chenopodium album), wild poinsettia (Euphorbia heterophylla), palmer pigweed (Amaranthus palmeri), waterhemp (common waterhemp, Amaranthus rudis), surinam grass (Brachiaria decumbens), large (Lg) crabgrass (Digitaria sanguinalis), Brazilian crabgrass (Digitaria horizontalis), fall panicum (Panicum dichotomiflorum), giant foxtail (Setaria faberii), green foxtail (Setaria viridis), goosegrass (Eleusine indica), johnsongrass (Sorghum halepense), ragweed (common ragweed, Ambrosia elatior), barnyardgrass (Echinochloa crus-galli), sandbur (southern sandbur, Cenchrus echinatus), arrowleaf sida (Sida rhombifolia), Italian ryegrass (Lolium multiflorum), dayflower (Virginia (VA) dayflower, Commelina virginica), field bindweed (Convolvulus arvensis), morningglory (Ipomoea coccinea), nightshade (eastern black nightshade, Solanum ptycanthum), kochia (Kochia scoparia), yellow nutsedge (Cyperus esculentus), cocklebur (common cocklebur, Xanthium strumarium), smartweed (ladysthumb smartweed, and hairy beggarticks (Bidens pilosa), were planted into a silt loam soil and treated preemergence with test chemicals formulated in a non-phytotoxic solvent mixture which included a surfactant.
(§2) At the same time, plants from these crop and weed species and also horseweed (Canada horseweed, Conyza canadensis), waterhemp_RES1, (ALS & Triazine resistant common waterhemp, Amaranthus rudis), and waterhemp_RES2, (ALS & HPPD resistant common waterhemp, Amaranthus rudis) were planted in pots containing Redi-Earth® planting medium (Scotts Company, 14111 Scottslawn Road, Marysville, Ohio 43041) comprising spaghnum peat moss, vermiculite, wetting agent and starter nutrients were treated with postemergence applications of test chemicals formulated in the same manner. Plants ranged in height from 2 to 18 cm for postemergence treatments (1- to 4-leaf stage). Treated plants and controls were maintained in a greenhouse for 14 to 21 days, after which time all species were compared to controls and visually evaluated. Plant response ratings, summarized in Table E, are based on a scale of 0 to 100 where 0 is no effect and 100 is complete control. A dash (-) response means no test result.

[2] = system: waterhemp_RES2 (ALS & HPPD resistant common waterhemp); assay: Test E postemergence; assay type: in vivo, Amaranthus rudis
Source text: as §1, §2

[3] = system: wild poinsettia; assay: Test E postemergence; assay type: in vivo, Euphorbia heterophylla
Source text: as §1, §2

[4] = system: soybean; assay: Test E postemergence; assay type: in vivo, Glycine max
Source text: as §1, §2

[5] = system: kochia; assay: Test D postemergence; assay type: in vivo, Kochia scoparia
Summary of the method: (§3)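 Species were sown in silt loam for preemergence treatment, or grown in peat-based medium to the 1–4-leaf stage (2–18 cm) for postemergence sprays. Test chemicals were formulated in a non-phytotoxic solvent mixture with surfactant. After 7–21 days in a controlled environment, plants were rated visually against controls on a 0 (no effect) to 100 (complete control) scale.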

[6] = system: wild buckwheat; assay: Test D postemergence; assay type: in vivo, Polygonum convolvulus; details: Postemergence, scale 0 to 100 (0 no effect, 100 complete control)
Summary of the method: as §3

[7] = system: speedwell; assay: Test D postemergence; assay type: in vivo, Veronica persica
Summary of the method: as §3

[8] = system: Italian ryegrass; assay: Test D postemergence; assay type: in vivo, Lolium multiflorum
Summary of the method: as §3

[9] = system: field violet; assay: Test D preemergence; assay type: in vivo, Viola arvensis
Summary of the method: as §3

[10] = system: galium; assay: Test D postemergence; assay type: in vivo, Galium aparine
Summary of the method: as §3

[11] = system: deadnettle; assay: Test D preemergence; assay type: in vivo, Lamium amplexicaule
Summary of the method: as §3

[12] = system: chickweed; assay: Test D preemergence; assay type: in vivo, Stellaria media
Summary of the method: as §3

[13] = system: blackgrass; assay: Test D postemergence; assay type: in vivo, Alopecurus myosuroides; details: Postemergence, scale 0 to 100 (0 no effect, 100 complete control)
Summary of the method: as §3

[14] = Postemergence, 31 g ai/ha, scale 0 to 100
[15] = Postemergence, 62 g ai/ha, scale 0 to 100
[16] = Postemergence, 125 g ai/ha, scale 0 to 100
[17] = Postemergence, 250 g ai/ha, scale 0 to 100
[18] = postemergence, 16 g ai/ha, scale 0 to 100, 0 no effect, 100 complete control
[19] = 62 g ai/ha, scale 0 to 100 (0 no effect, 100 complete control)
[20] = 125 g ai/ha, scale 0 to 100 (0 no effect, 100 complete control)
[21] = 250 g ai/ha, scale 0 to 100 (0 no effect, 100 complete control)
[22] = 31 g ai/ha, scale 0 (no effect) to 100 (complete control)

## Fc1cnc(Oc2ccccc2-n2cc(Br)cn2)nc1 [Compound 10, 2-[2-(4-bromo-1H-pyrazol-1-yl)phenoxy]-5-fluoropyrimidine]
[1]; Lolium multiflorum, post-emergence, Postemergence, 31 g ai/ha, scale 0 to 100, read-out: Plant response rating, Ryegrass, Italian
  pest or weed control at 31 g/ha: 0%
[1]; Lolium multiflorum, post-emergence, Postemergence, 62 g ai/ha, scale 0 to 100, read-out: Plant response rating, Ryegrass, Italian
  pest or weed control at 62 g/ha: 0%
[1]; Lolium multiflorum, post-emergence, Postemergence, 125 g ai/ha, scale 0 to 100, read-out: Plant response rating, Ryegrass, Italian
  pest or weed control at 125 g/ha: 0%
[1]; Lolium multiflorum, post-emergence, Postemergence, 250 g ai/ha, scale 0 to 100, read-out: Plant response rating, Ryegrass, Italian
  pest or weed control at 250 g/ha: 0%
[1]; Lolium multiflorum, post-emergence, postemergence, 16 g ai/ha, scale 0 to 100, 0 no effect, 100 complete control, read-out: Plant response rating, Ryegrass, Italian
  pest or weed control at 16 g/ha: 0%
[2]; Amaranthus tuberculatus, post-emergence, Postemergence, 31 g ai/ha, scale 0 to 100, read-out: Plant response rating, Waterhemp_RES2
  pest or weed control at 31 g/ha: 60%
[2]; Amaranthus tuberculatus, post-emergence, Postemergence, 62 g ai/ha, scale 0 to 100, read-out: Plant response rating, Waterhemp_RES2
  pest or weed control at 62 g/ha: 75%
[2]; Amaranthus tuberculatus, post-emergence, Postemergence, 125 g ai/ha, scale 0 to 100, read-out: Plant response rating, Waterhemp_RES2
  pest or weed control at 125 g/ha: 80%
[2]; Amaranthus tuberculatus, post-emergence, Postemergence, 250 g ai/ha, scale 0 to 100, read-out: Plant response rating, Waterhemp_RES2
  pest or weed control at 250 g/ha: 90%
[2]; Amaranthus tuberculatus, post-emergence, postemergence, 16 g ai/ha, scale 0 to 100, 0 no effect, 100 complete control, read-out: Plant response rating, Waterhemp_RES2
  pest or weed control at 16 g/ha: 50%
[3]; Euphorbia heterophylla, post-emergence, Postemergence, 31 g ai/ha, scale 0 to 100, read-out: Plant response rating, Poinsettia, Wild
  pest or weed control at 31 g/ha: 20%
[3]; Euphorbia heterophylla, post-emergence, Postemergence, 62 g ai/ha, scale 0 to 100, read-out: Plant response rating, Poinsettia, Wild
  pest or weed control at 62 g/ha: 30%
[3]; Euphorbia heterophylla, post-emergence, Postemergence, 125 g ai/ha, scale 0 to 100, read-out: Plant response rating, Poinsettia, Wild
  pest or weed control at 125 g/ha: 30%
[3]; Euphorbia heterophylla, post-emergence, Postemergence, 250 g ai/ha, scale 0 to 100, read-out: Plant response rating, Poinsettia, Wild
  pest or weed control at 250 g/ha: 60%
[3]; Euphorbia heterophylla, post-emergence, postemergence, 16 g ai/ha, scale 0 to 100, 0 no effect, 100 complete control, read-out: Plant response rating, Poinsettia, Wild
  pest or weed control at 16 g/ha: 5%
[4]; Glycine max, post-emergence, Postemergence, 31 g ai/ha, scale 0 to 100
  plant response (crop injury) rating, soybean, 0-100 scale at 31 g/ha: 50%
[4]; Glycine max, post-emergence, Postemergence, 62 g ai/ha, scale 0 to 100
  plant response (crop injury) rating, soybean, 0-100 scale at 62 g/ha: 75%
[4]; Glycine max, post-emergence, Postemergence, 125 g ai/ha, scale 0 to 100
  plant response (crop injury) rating, soybean, 0-100 scale at 125 g/ha: 90%
[4]; Glycine max, post-emergence, Postemergence, 250 g ai/ha, scale 0 to 100
  plant response (crop injury) rating, soybean, 0-100 scale at 250 g/ha: 95%
[4]; Glycine max, post-emergence, postemergence, 16 g ai/ha, scale 0 to 100, 0 no effect, 100 complete control
  plant response (crop injury) rating, soybean, 0-100 scale at 16 g/ha: 30%

## FC(F)(F)c1cnn(-c2ccccc2Oc2ncc(Cl)cn2)c1 [Compound 16]
[1]; [14]
  Plant response rating, Ryegrass, Italian: 0
[1]; [15]
  Plant response rating, Ryegrass, Italian: 0
[1]; [16]
  Plant response rating, Ryegrass, Italian: 0
[1]; [17]
  Plant response rating, Ryegrass, Italian: 0
[1]; [18]
  Plant response rating, Ryegrass, Italian: 0
[2]; [14]
  Plant response rating, Waterhemp_RES2: 50
[2]; [15]
  Plant response rating, Waterhemp_RES2: 60
[2]; [16]
  Plant response rating, Waterhemp_RES2: 70
[2]; [17]
  Plant response rating, Waterhemp_RES2: 85
[2]; [18]
  Plant response rating, Waterhemp_RES2: 25
[3]; [14]
  Plant response rating, Poinsettia, Wild: 60
[3]; [15]
  Plant response rating, Poinsettia, Wild: 60
[3]; [16]
  Plant response rating, Poinsettia, Wild: 70
[3]; [17]
  Plant response rating, Poinsettia, Wild: 80
[3]; [18]
  Plant response rating, Poinsettia, Wild: 50
[4]; [14]
  Plant response rating, Soybean: 30
[4]; [15]
  Plant response rating, Soybean: 80
[4]; [16]
  Plant response rating, Soybean: 95
[4]; [17]
  Plant response rating, Soybean: 95
[4]; [18]
  Plant response rating, Soybean: 15

## N#Cc1cccc(Oc2ncc(Cl)cn2)c1-n1cc(-n2ccc(C(F)(F)F)n2)cn1 [Compound 284]
[5]; 31 g ai/ha, scale 0-100
  Plant response rating, Kochia: 100
[5]; [19]
  Plant response rating, Kochia: 100
[5]; [20]
  Plant response rating, Kochia: 100
[5]; [21]
  Plant response rating, Kochia: 100
[6]; 62 g ai/ha
  Plant response rating, Buckwheat, Wild: 100
[6]; 31 g ai/ha
  Plant response rating, Buckwheat, Wild: 100
[6]; 125 g ai/ha
  Plant response rating, Buckwheat, Wild: 100
[6]; 250 g ai/ha
  Plant response rating, Buckwheat, Wild: 100
[7]; 31 g ai/ha, scale 0-100
  Plant response rating, Speedwell: 70
[7]; [19]
  Plant response rating, Speedwell: 75
[7]; [20]
  Plant response rating, Speedwell: 100
[7]; [21]
  Plant response rating, Speedwell: 100
[8]; 31 g ai/ha, scale 0-100
  Plant response rating, Ryegrass, Italian: 10
[8]; [19]
  Plant response rating, Ryegrass, Italian: 10
[8]; [20]
  Plant response rating, Ryegrass, Italian: 15
[8]; [21]
  Plant response rating, Ryegrass, Italian: 15
[9]; [22]
  Plant response rating, Field Violet: 45
[9]; 62 g ai/ha, scale 0-100
  Plant response rating, Field Violet: 100
[9]; 125 g ai/ha, scale 0-100
  Plant response rating, Field Violet: 100
[9]; 250 g ai/ha, scale 0-100
  Plant response rating, Field Violet: 100
[10]; 31 g ai/ha, scale 0-100
  Plant response rating, Galium: 70
[10]; [19]
  Plant response rating, Galium: 85
[10]; [20]
  Plant response rating, Galium: 85
[10]; [21]
  Plant response rating, Galium: 95
[11]; [22]
  Plant response rating, Deadnettle: 35
[11]; 62 g ai/ha, scale 0-100
  Plant response rating, Deadnettle: 45
[11]; 125 g ai/ha, scale 0-100
  Plant response rating, Deadnettle: 75
[11]; 250 g ai/ha, scale 0-100
  Plant response rating, Deadnettle: 100
[12]; [22]
  Plant response rating, Chickweed: 10
[12]; 62 g ai/ha, scale 0-100
  Plant response rating, Chickweed: 15
[12]; 125 g ai/ha, scale 0-100
  Plant response rating, Chickweed: 20
[12]; 250 g ai/ha, scale 0-100
  Plant response rating, Chickweed: 30
[13]; 62 g ai/ha
  Plant response rating, Blackgrass: 25
[13]; 31 g ai/ha
  Plant response rating, Blackgrass: 20
[13]; 125 g ai/ha
  Plant response rating, Blackgrass: 30
[13]; 250 g ai/ha
  Plant response rating, Blackgrass: 35
